The values that follow come from US11034650B2, “Compounds useful for treating a Mannheimia haemolytica or Histophilus somni infection” (Intervet Inc., priority 2016, dated 2021).

Structures are written as SMILES. In brackets after ≈: the same amount, converted by molar mass.

Holding throughout (format): cell-based
The subject of assay [1] is Mannheimia haemolytica MH 6357 (M7/2, reference strain, cattle infection strain). As to the kind of experiment: MIC, broth-microdilution (CLSI VET01-A4), strain MH 6357. Conditions: Mannheimia haemolytica strain MH 6357, broth-microdilution; unit assumed. The gist of the method: (§1)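 Growth inhibition is scored visually on a doubling dilution series. The reported MIC corresponds to the lowest concentration free of turbidity, with results assessed under CLSI VET01-S3.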
Background: Dilution methods test growth across graded concentrations, often in twofold steps.

For assay [2], the system named is Pasteurella multocida PM 12080 (IV102277-0093, BRD field isolate). As to the kind of experiment: MIC, broth-microdilution (CLSI VET01-A4), strain PM 12080. Conditions: Pasteurella multocida strain PM 12080, broth-microdilution; unit assumed. The gist of the method: as §1
Assay [3] deals with Mannheimia haemolytica MH 12587 (1071, BRD field isolate, macrolide-resistance: erm+, E+). As to the kind of experiment: MIC, broth-microdilution (CLSI VET01-A4), strain MH 12587. The settings on record: Mannheimia haemolytica strain MH 12587, broth-microdilution; unit assumed. In outline:
as §1

Assay [4] relates to Mannheimia haemolytica MH 13065 (XB0446-6003.9, BRD field isolate). Nature of the assay: MIC, broth-microdilution (CLSI VET01-A4), strain MH 13065. Conditions: Mannheimia haemolytica strain MH 13065, broth-microdilution; unit assumed. The gist of the method: as §1
Assay [5] concerns Pasteurella multocida PM 6391 (ATCC 43137, reference strain). As to the kind of experiment: MIC, broth-microdilution (CLSI VET01-A4), strain PM 6391. The settings on record: Pasteurella multocida strain PM 6391, broth-microdilution; unit assumed. The protocol: For example, representative compounds were tested against ***, Mannheimia haemolytica and Pasteurella multocida, using the conventional broth-dilution assay.
The Minimum inhibitory concentrations (MIC) of compounds according to the invention for a number of veterinary bacterial pathogens were determined by the broth-microdilution method according to CLSI document VET01-A4.
Microdilution trays containing a doubling dilution series of the test compound were used for the tests. The MIC results were interpreted according to the CLSI documents VET01-S3. The lowest concentration of compound at which no visible growth (i.e. no turbidity) detected by the unaided eye was recorded as the MIC.

For assay [6], the system named is Mannheimia haemolytica MH 13093 (XB0472-6014.1, BRD field isolate). As to the kind of experiment: MIC, broth-microdilution (CLSI VET01-A4), strain MH 13093. The settings on record: Mannheimia haemolytica strain MH 13093, broth-microdilution; unit assumed. In outline: as §1
The test system of assay [7] is Mannheimia haemolytica MH 6374 (ATCC 33396, reference strain). Nature of the assay: MIC, broth-microdilution (CLSI VET01-A4), strain MH 6374. The settings on record: Mannheimia haemolytica strain MH 6374, broth-microdilution; unit assumed. The gist of the method:
as §1

Assay [8] concerns Pasteurella multocida PM 6267 (P 2225 (L386), reference strain, mouse infection strain). Nature of the assay: MIC, broth-microdilution (CLSI VET01-A4), strain PM 6267. Conditions: Pasteurella multocida strain PM 6267, broth-microdilution; unit assumed. In outline:
as §1

For assay [9], the system named is Mannheimia haemolytica MH 10720 (154, BRD field isolate). As to the kind of experiment: MIC, broth-microdilution (CLSI VET01-A4), strain MH 10720. Conditions: Mannheimia haemolytica strain MH 10720, broth-microdilution; unit assumed. The gist of the method: as §1
Assay [10] concerns Pasteurella multocida PM 10775 (080130003051, BRD field isolate). As to the kind of experiment: MIC, broth-microdilution (CLSI VET01-A4), strain PM 10775. Conditions: Pasteurella multocida strain PM 10775, broth-microdilution; unit assumed. The gist of the method:
as §1

In turn, `CC(C)([C@H](NC(=O)c1ccc(C#Cc2ccc(CNCc3ccco3)cc2)cc1)C(=O)NO)S(C)(=O)=O` [C.270] displayed an MIC MH 6357 in assay [1] of 0.8 µg/mL (≈ 1.53 µM). The same molecule came in with an MIC PM 12080 in assay [2] of no more than 0.1 µg/mL. This molecule had an MIC MH 12587 in [3] of 0.8 µg/mL (≈ 1.53 µM). In assay [4], this molecule showed an MIC MH 13065 of 0.2 µg/mL (≈ 0.382 µM). The molecule also gave an MIC PM 6391 in [5] of no more than 0.1 µg/mL. This molecule registered an MIC MH 13093 in [6] of 0.4 µg/mL (≈ 0.764 µM). Besides, the MIC MH 6374 in assay [7] was found to be 0.2 µg/mL (≈ 0.382 µM). The same molecule came in with an MIC PM 6267 in assay [8] of no more than 0.1 µg/mL. In addition, the MIC MH 10720 in assay [9] was no more than 0.1 µg/mL. For the same molecule, the MIC PM 10775 in assay [10] was no more than 0.1 µg/mL.
As for `CC(C)([C@H](NC(=O)c1ccc(C#Cc2ccc(CNCc3nccs3)cc2)cc1)C(=O)NO)S(C)(=O)=O` [C.274], the MIC MH 6357 in [1] stood at 0.2 µg/mL (≈ 0.37 µM). Further, the MIC PM 12080 in assay [2] was no more than 0.1 µg/mL. The same molecule returned an MIC MH 12587 in assay [3] of 0.4 µg/mL (≈ 0.74 µM). Moreover, the MIC MH 13065 in assay [4] is 0.2 µg/mL (≈ 0.37 µM). The MIC PM 6391 in assay [5] is no more than 0.1 µg/mL. The MIC MH 13093 in assay [6] amounted to 0.2 µg/mL (≈ 0.37 µM). Further, the MIC MH 6374 in [7] was 0.2 µg/mL (≈ 0.37 µM). This molecule also showed an MIC PM 6267 in assay [8] of no more than 0.1 µg/mL. Moreover, the MIC MH 10720 in assay [9] was no more than 0.1 µg/mL. Besides, the MIC PM 10775 in [10] was no more than 0.1 µg/mL.
In assay [1], `COCCNCc1ccc(C#Cc2ccc(C(=O)N[C@H](C(=O)NO)C(C)(C)O)cc2)s1` [C.292] returned an MIC MH 6357 of 0.4 µg/mL (≈ 0.898 µM). Further, in assay [2], the MIC PM 12080 turned out to be 0.4 µg/mL (≈ 0.898 µM). Also, in assay [3], the MIC MH 12587 was determined as 1.6 µg/mL (≈ 3.59 µM). Also, the MIC MH 13065 in [4] came out at 0.8 µg/mL (≈ 1.8 µM). For the same molecule, the MIC PM 6391 in [5] was found to be 0.8 µg/mL (≈ 1.8 µM). Further, in [6], the MIC MH 13093 amounted to 1.6 µg/mL (≈ 3.59 µM). This molecule came in with an MIC MH 6374 in assay [7] of 0.8 µg/mL (≈ 1.8 µM). The same molecule displayed an MIC PM 6267 in assay [8] of 1.6 µg/mL (≈ 3.59 µM). The MIC MH 10720 in [9] was no more than 0.1 µg/mL. In assay [10], the MIC PM 10775 was no more than 0.1 µg/mL.
In assay [1], `CC(C)([C@H](NC(=O)c1ccc(C#Cc2ccc(CNC3CC3)s2)cc1)C(=O)NO)S(C)(=O)=O` [C.311] displayed an MIC MH 6357 of 0.2 µg/mL (≈ 0.408 µM). Moreover, the MIC PM 12080 in [2] was no more than 0.1 µg/mL. Further, the MIC MH 12587 in assay [3] turned out to be 0.4 µg/mL (≈ 0.817 µM). Further, in assay [4], the MIC MH 13065 is no more than 0.1 µg/mL. In addition, the MIC PM 6391 in assay [5] was no more than 0.1 µg/mL. Moreover, the MIC MH 13093 in assay [6] is 0.4 µg/mL (≈ 0.817 µM). The molecule further gave an MIC MH 6374 in [7] of no more than 0.1 µg/mL. In assay [8], this molecule yielded an MIC PM 6267 of 0.4 µg/mL (≈ 0.817 µM). Also, the MIC MH 10720 in assay [9] is no more than 0.1 µg/mL. This molecule also returned an MIC PM 10775 in [10] of no more than 0.1 µg/mL.
In assay [1], `COCCNCc1ccc(C#Cc2ccc(C(=O)N[C@H](C(=O)NO)C(C)(C)S(C)(=O)=O)cc2)s1` [C.313] gave an MIC MH 6357 of 0.4 µg/mL (≈ 0.788 µM). The molecule further registered an MIC PM 12080 in assay [2] of no more than 0.1 µg/mL. In assay [3], this molecule registered an MIC MH 12587 of 1.6 µg/mL (≈ 3.15 µM). Moreover, the MIC MH 13065 in assay [4] stood at 0.4 µg/mL (≈ 0.788 µM). Besides, in [5], the MIC PM 6391 was no more than 0.1 µg/mL. The MIC MH 13093 in assay [6] turned out to be 0.8 µg/mL (≈ 1.58 µM). Moreover, the MIC MH 6374 in [7] was 1.6 µg/mL (≈ 3.15 µM). Besides, the MIC PM 6267 in [8] came out at 0.2 µg/mL (≈ 0.394 µM). In assay [9], the MIC MH 10720 is no more than 0.1 µg/mL. In assay [10], this molecule came in with an MIC PM 10775 of no more than 0.1 µg/mL.
In assay [1], `CC(C)([C@H](NC(=O)c1ccc(C#Cc2ccc(CNCc3cccnc3)s2)cc1)C(=O)NO)S(C)(=O)=O` [C.319] came in with an MIC MH 6357 of 0.2 µg/mL (≈ 0.37 µM). This molecule also had an MIC PM 12080 in assay [2] of no more than 0.1 µg/mL. Besides, in assay [3], the MIC MH 12587 stood at 0.8 µg/mL (≈ 1.48 µM). Also, the MIC MH 13065 in assay [4] came out at 0.4 µg/mL (≈ 0.74 µM). Moreover, the MIC PM 6391 in assay [5] is no more than 0.1 µg/mL. In addition, the MIC MH 13093 in assay [6] is 0.4 µg/mL (≈ 0.74 µM). Besides, in assay [7], the MIC MH 6374 turned out to be 0.2 µg/mL (≈ 0.37 µM). The same molecule had an MIC PM 6267 in assay [8] of 0.2 µg/mL (≈ 0.37 µM). The same molecule showed an MIC MH 10720 in [9] of no more than 0.1 µg/mL. In assay [10], this molecule yielded an MIC PM 10775 of no more than 0.1 µg/mL.
Molecule `CC(C)(C)CNCc1ccc(C#Cc2ccc(C(=O)N[C@@H](CO)C(=O)NO)cc2)cc1` [Compound 136] showed an MIC MH 6357 in assay [1] of 3.1 µg/mL (≈ 7.32 µM). The MIC PM 12080 in assay [2] is 0.8 µg/mL (≈ 1.89 µM). Moreover, in assay [3], the MIC MH 12587 stood at 25 µg/mL (≈ 59 µM). In assay [4], this molecule had an MIC MH 13065 of 12.5 µg/mL (≈ 29.5 µM). Further, the MIC PM 6391 in assay [5] is 0.8 µg/mL (≈ 1.89 µM). Further, the MIC MH 13093 in [6] is 25 µg/mL (≈ 59 µM). In assay [7], this molecule had an MIC MH 6374 of 12.5 µg/mL (≈ 29.5 µM). In assay [8], this molecule displayed an MIC PM 6267 of 0.4 µg/mL (≈ 0.944 µM). The molecule also gave an MIC MH 10720 in assay [9] of 1.6 µg/mL (≈ 3.78 µM). This molecule gave an MIC PM 10775 in assay [10] of no more than 0.1 µg/mL.
For `CC[C@H](C)[C@H](NC(=O)c1ccc(C#Cc2ccc(CNC(C)C)cc2)cc1)C(=O)NO` [Compound 141], the MIC MH 6357 in assay [1] was 6.3 µg/mL (≈ 14.9 µM). This molecule also registered an MIC PM 12080 in assay [2] of 3.1 µg/mL (≈ 7.35 µM). In addition, the MIC MH 12587 in assay [3] was 12.5 µg/mL (≈ 29.7 µM). This molecule displayed an MIC MH 13065 in [4] of 6.3 µg/mL (≈ 14.9 µM). The same molecule gave an MIC PM 6391 in assay [5] of 3.1 µg/mL (≈ 7.35 µM). For the same molecule, in assay [6], the MIC MH 13093 came to 12.5 µg/mL (≈ 29.7 µM). This molecule had an MIC MH 6374 in assay [7] of 12.5 µg/mL (≈ 29.7 µM). This molecule gave an MIC PM 6267 in assay [8] of 1.6 µg/mL (≈ 3.8 µM). In assay [9], this molecule returned an MIC MH 10720 of 1.6 µg/mL (≈ 3.8 µM). In addition, the MIC PM 10775 in [10] was found to be 0.2 µg/mL (≈ 0.474 µM).
